Test results: ChEMBL document CHEMBL4651402, “Screening of ~5500 FDA-approved drugs and clinical candidates for anti-SARS-CoV-2 activity” (2021)

System: SARS-CoV-2
Test: microbe, parasite or virus in culture
Conditions: Severe acute respiratory syndrome coronavirus 2, Vero C1008, 48 h

Structure (SMILES) | IC50 | IC50 (read-out: pIC50 (converted))
CC[C@@]1([C@@H]2O[C@@H]([C@H]3O[C@@](O)(CO)[C@H](C)C[C@@H]3C)C[C@@H]2C)CC[C@H]([C@]2(C)CC[C@]3(C[C@H](O)[C@@H](C)[C@@H]([C@@H](C)[C@@H](OC)[C@H](C)C(=O)O)O3)O2)O1 [MONENSIN] | > 20 µM | > 20 µM
N[C@H](CO)Cc1ccccc1 [L-PHENYLALANINOL] | > 20 µM | > 20 µM
CC(C)(C)c1ccc(C(=O)CCCN2CCC(OC(c3ccccc3)c3ccccc3)CC2)cc1 [EBASTINE] | > 20 µM | > 20 µM
CCC(=O)N(c1ccc(Cl)c(Cl)c1)[C@@H]1CCC[C@H]1N(C)C | > 20 µM | > 20 µM
CCOC(=O)[C@H](CCc1ccccc1)N[C@H]1CCCN2CCC[C@@H](C(=O)O)N2C1=O [CILAZAPRIL] | > 20 µM | > 20 µM
C#C[C@]1(O)CC[C@H]2[C@@H]3CCC4=CC(=NO)CC[C@@H]4[C@H]3CC[C@@]21CC | > 20 µM | > 20 µM
CCOC(=O)c1ccc(N)cc1 [BENZOCAINE] | > 20 µM | > 20 µM
CCOC(=O)C1(c2ccccc2)CCCN(C)CC1 (stereo not given) [ETHOHEPTAZINE] | > 20 µM | > 20 µM
Cc1ccc(COC(=O)N2CC[C@H](CNc3ncccn3)[C@H](F)C2)cc1 [RISLENEMDAZ] | > 20 µM | > 20 µM
CCCCNC(=O)NC1CCN(c2ncnc3cc(OC)c(OC)cc23)CC1 [BUQUINERAN] | > 20 µM | > 20 µM
CCC(C(=O)O)c1ccc(-c2ccccc2)cc1 (stereo not given) [XENBUCIN] | > 20 µM | > 20 µM
CCOC(=O)C(=O)Nc1nc(-c2ccc(OC)cc2)cs1 [TIOXAMAST] | > 20 µM | > 20 µM
CCC(Br)(CC)C(=O)NC(N)=O [CARBROMAL] | > 20 µM | > 20 µM
CN[C@@H](C)C/C=C/c1cncc(OC(C)C)c1 [ISPRONICLINE] | > 20 µM | > 20 µM
CN1CCN(CCCCN2C(=O)CN(/N=C/c3ccc(-c4ccc(Cl)cc4)o3)C2=O)CC1 [AZIMILIDE] | > 20 µM | > 20 µM
COC(=O)N1CCN(Cc2cccc(NC(=O)Nc3ccc(C)nc3)c2F)CC1 [OMECAMTIV MECARBIL] | > 20 µM | > 20 µM
CC(C(=O)O)C1CCC2C3CC=C4C[C@@H](O)CC[C@]4(C)C3CC[C@]12C (stereo not given in full) | > 20 µM | > 20 µM
CCCCCCCCCCCCCCCCCC(=O)O [STEARIC ACID] | > 20 µM | > 20 µM
C[C@H](O)C(=O)O [L-LACTIC ACID] | > 20 µM | > 20 µM
Nc1ccncc1N [AMIFAMPRIDINE] | > 20 µM | > 20 µM
NC(=O)CN1CCCC1=O | > 20 µM | > 20 µM
c1ccc2[nH]c(-c3nc4ccccc4[nH]3)nc2c1 | > 20 µM | > 20 µM
O[C@@H]1CO[C@H]2[C@@H]1OC[C@@H]2O [ISOSORBIDE] | > 20 µM | > 20 µM
O=C(O)Cc1csc(-c2ccc(Cl)cc2)n1 [FENCLOZIC ACID] | > 20 µM | > 20 µM
CCC(CC)C(c1ccc(Nc2nc3ccccc3s2)cc1)n1cncn1 (racemic) [TALAROZOLE] | > 20 µM | > 20 µM

Structure (SMILES) | IC50 | IC50 (read-out: pIC50 (converted))
C[C@@H]1C(=O)NC2=Nc3cccc(Cl)c3CN21 [QUAZINONE] | > 20 µM | > 20 µM
CCCCCC1C(=O)N2C=C(c3ccccc3)c3ccccc3N2C1=O (stereo not given) [CINTAZONE] | > 20 µM | > 20 µM
CCN(CC)CCNC(=O)c1ccc(NC(C)=O)cc1 [ACECAINIDE] | > 20 µM | > 20 µM
CCOC(=O)[C@H](C)C[C@@H](C)C(=O)N1c2ccccc2C[C@H]1C(=O)O [PENTOPRIL] | > 20 µM | > 20 µM
CC=C(C)C(=O)O[C@@H]1c2c(ccc3ccc(=O)oc23)OC(C)(C)[C@@H]1OC(C)=O | > 20 µM | > 20 µM
CC[C@H](C)C(=O)O[C@H]1C[C@@H](C)C=C2C=C[C@H](C)[C@H](CC[C@@H]3C[C@@H](O)CC(=O)O3)[C@H]21 [LOVASTATIN] | > 20 µM | > 20 µM
COC(=O)C(N)CCCNC(=N)N[N+](=O)[O-] (stereo not given) | > 20 µM | > 20 µM
C[C@]12CC[C@H](O)C[C@@H]1CC[C@@H]1C2CC[C@]2(C)[C@@H](C3=CC(=O)OC3)CC[C@]12O (stereo not given in full) | > 20 µM | > 20 µM
N#Cc1nn(-c2c(Cl)cc(C(F)(F)F)cc2Cl)c(N)c1[S+]([O-])C(F)(F)F (stereo not given) [FIPRONIL] | > 20 µM | > 20 µM
CCOC(=O)c1ccc(C#Cc2ccc3c(c2)C(C)(C)CCS3)nc1 [TAZAROTENE] | > 20 µM | > 20 µM
O=C(O)CCCCCCCC(=O)O [AZELAIC ACID] | > 20 µM | > 20 µM
CC(C)(Oc1ccc(C2CCCc3ccccc32)cc1)C(=O)O (stereo not given) [NAFENOPIN] | > 20 µM | > 20 µM
Cc1nnc2n1-c1ccc(Cl)cc1C(c1ccccc1Cl)=NC2 [TRIAZOLAM] | > 20 µM | > 20 µM
COc1ccc2c(c1)C=C1Cn3c-2c(C2CCCCC2)c2ccc(cc23)C(=O)NS(=O)(=O)N(C)CCOCCN(C)C1=O [TMC-647055] | > 20 µM | > 20 µM
Nc1nc(=O)n([C@@H]2C=C[C@H](CO)O2)cc1F [ELVUCITABINE] | > 20 µM | > 20 µM
CN(C)CCO/N=C(/C=C/c1ccc(O)cc1)c1ccccc1F [EPLIVANSERIN] | > 20 µM | > 20 µM
CN(C)c1nc(N(C)C)nc(N(C)C)n1 [ALTRETAMINE] | > 20 µM | > 20 µM
CC1CC2C3CC(F)C4=CC(=O)C=CC4(C)C3C(O)CC2(C)C1C(=O)CO (stereo not given) | > 20 µM | > 20 µM
CC(C(O)(Cn1cncn1)c1ccc(F)cc1F)S(C)(=O)=O (stereo not given) | > 20 µM | > 20 µM
CC(=O)OC[C@H]1O[C@@H](S)[C@H](OC(C)=O)[C@@H](OC(C)=O)[C@@H]1OC(C)=O | > 20 µM | > 20 µM
CC12CCC3C(CC[C@H]4CC(O)CCC34C)C1CCC2O (stereo not given in full) | > 20 µM | > 20 µM
C/C(=C\C(=O)OCCCCCCCCC(=O)O)C[C@@H]1OC[C@H](C[C@@H]2O[C@H]2[C@H](C)[C@H](C)O)[C@@H](O)[C@@H]1O | > 20 µM | > 20 µM
Cc1[nH]c2ccccc2c1CCNCc1ccc(/C=C/C(=O)NO)cc1 [PANOBINOSTAT] | > 20 µM | > 20 µM
CN1CCN(c2nc(C3=C(c4c[nH]c5ccccc45)C(=O)NC3=O)c3ccccc3n2)CC1 [SOTRASTAURIN] | > 20 µM | > 20 µM
CC(=O)NCCOC(=O)[C@H](Oc1cccc(C(F)(F)F)c1)c1ccc(Cl)cc1 [ARHALOFENATE] | > 20 µM | > 20 µM

Structure (SMILES) | IC50 | IC50 (read-out: pIC50 (converted))
CC(/C=C1\SC(=S)N(CC(=O)O)C1=O)=C\c1ccccc1 | > 20 µM | > 20 µM
CCc1oc2ccccc2c1C(=O)c1cc(Br)c(O)c(Br)c1 [BENZBROMARONE] | > 20 µM | > 20 µM
CN(C(=O)CCCOc1ccc2[nH]c(=O)ccc2c1)C1CCCCC1 [CILOSTAMIDE] | > 20 µM | > 20 µM
C=C1C(=O)O[C@@H]2[C@H]3O[C@]3(C)CC/C=C(\C)CC[C@@H]12 | > 20 µM | > 20 µM
CC(=O)NC(Cc1ccccc1)C(=O)O (stereo not given) [AFALANINE] | > 20 µM | > 20 µM
CCCCOC(=O)c1ccc(O)cc1 [BUTYLPARABEN] | > 20 µM | > 20 µM
CC1(C)CC=C(c2nc(C3CC(C)(C)OC(C)(C)C3)ccc2NC(=O)c2nc(C#N)c[nH]2)CC1 [EDICOTINIB] | > 20 µM | > 20 µM
Cc1ccnc(N)c1 | > 20 µM | > 20 µM
COCCOC(=O)C1=C(C)NC(C)=C(C(=O)OC/C=C/c2ccccc2)C1c1cccc([N+](=O)[O-])c1 (stereo not given) [CILNIDIPINE] | > 20 µM | > 20 µM
CCCCC[C@H](O)/C=C/[C@@H]1[C@H]2C/C(=C/CCCC(=O)O)O[C@H]2C[C@H]1O [EPOPROSTENOL] | > 20 µM | > 20 µM
CC1(C)SCCN(S(=O)(=O)c2ccc(Oc3ccncc3)cc2)[C@@H]1C(=O)NO | > 20 µM | > 20 µM
CC(C(=O)Nc1ccc(Cl)cc1)[C@H]1CC[C@@H](c2ccnc3ccc(F)cc32)CC1 (stereo not given in full) | > 20 µM | > 20 µM
COc1cc(C)c2c(c1C=O)Oc1c(c(C)c(O)c3c1[C@H](O)OC3=O)OC2=O | > 20 µM | > 20 µM
O=c1[nH]c(=O)n(C2CC(O)C(CO)O2)cc1Br (stereo not given) | > 20 µM | > 20 µM
COc1ccc2c(c1OC)C13CCN(C)C(C2)C1(O)CCC(O)C3 (stereo not given) | > 20 µM | > 20 µM
CC[C@H]1OC(=O)[C@H](C)[C@@H](O[C@H]2C[C@@](C)(OC)[C@@H](O)[C@H](C)O2)[C@H](C)[C@@H](O[C@@H]2O[C@H](C)C[C@H](N(C)C)[C@H]2O)[C@](C)(OC)C[C@@H](C)C(=O)[C@H](C)[C@@H](O)[C@]1(C)O [CLARITHROMYCIN] | > 20 µM | > 20 µM
COC(=O)C1=COC(O[C@H]2OC(CO)[C@H](O)C(O)C2O)[C@H]2C1C(=O)C[C@@H]2C (stereo not given in full) | > 20 µM | > 20 µM
O=C1c2ccccc2C(=O)c2c1ccc(O)c2O [ATHRAQUINONES A] | > 20 µM | > 20 µM
CN(C)[C@@H]1C(O)=C(C(N)=O)C(=O)[C@@]2(O)C(O)=C3C(=O)c4c(O)cccc4[C@@](C)(O)[C@H]3C[C@@H]12 [TETRACYCLINE] | > 20 µM | > 20 µM
CCN(CCO)CCn1c(Cc2ccccc2)nc2c1c(=O)n(C)c(=O)n2C [BAMIFYLLINE] | > 20 µM | > 20 µM
COc1ccc2[nH]c3c(c2c1)CCN=C3C | > 20 µM | > 20 µM
c1cc2c(c(N3CCNCC3)c1)OCCO2 [ELTOPRAZINE] | > 20 µM | > 20 µM
Nc1nc(N)nc(-c2cc(Cl)ccc2Cl)n1 [IRSOGLADINE] | > 20 µM | > 20 µM
O=C(O)CCc1nc2ccccc2[nH]1 [PROCODAZOLE] | > 20 µM | > 20 µM
Nc1ccc(S(=O)(=O)Nc2ccc(Cl)nn2)cc1 [SULFACHLORPYRIDAZINE] | > 20 µM | > 20 µM
